{"source": "ChEMBL document CHEMBL1201862", "about": "“PubChem BioAssay data set” (2004)", "key": {"ORF 73": {"biological_target": "ORF 73 (Human herpesvirus 8, UniProt O40947)", "sequence (O40947 whole entry)": "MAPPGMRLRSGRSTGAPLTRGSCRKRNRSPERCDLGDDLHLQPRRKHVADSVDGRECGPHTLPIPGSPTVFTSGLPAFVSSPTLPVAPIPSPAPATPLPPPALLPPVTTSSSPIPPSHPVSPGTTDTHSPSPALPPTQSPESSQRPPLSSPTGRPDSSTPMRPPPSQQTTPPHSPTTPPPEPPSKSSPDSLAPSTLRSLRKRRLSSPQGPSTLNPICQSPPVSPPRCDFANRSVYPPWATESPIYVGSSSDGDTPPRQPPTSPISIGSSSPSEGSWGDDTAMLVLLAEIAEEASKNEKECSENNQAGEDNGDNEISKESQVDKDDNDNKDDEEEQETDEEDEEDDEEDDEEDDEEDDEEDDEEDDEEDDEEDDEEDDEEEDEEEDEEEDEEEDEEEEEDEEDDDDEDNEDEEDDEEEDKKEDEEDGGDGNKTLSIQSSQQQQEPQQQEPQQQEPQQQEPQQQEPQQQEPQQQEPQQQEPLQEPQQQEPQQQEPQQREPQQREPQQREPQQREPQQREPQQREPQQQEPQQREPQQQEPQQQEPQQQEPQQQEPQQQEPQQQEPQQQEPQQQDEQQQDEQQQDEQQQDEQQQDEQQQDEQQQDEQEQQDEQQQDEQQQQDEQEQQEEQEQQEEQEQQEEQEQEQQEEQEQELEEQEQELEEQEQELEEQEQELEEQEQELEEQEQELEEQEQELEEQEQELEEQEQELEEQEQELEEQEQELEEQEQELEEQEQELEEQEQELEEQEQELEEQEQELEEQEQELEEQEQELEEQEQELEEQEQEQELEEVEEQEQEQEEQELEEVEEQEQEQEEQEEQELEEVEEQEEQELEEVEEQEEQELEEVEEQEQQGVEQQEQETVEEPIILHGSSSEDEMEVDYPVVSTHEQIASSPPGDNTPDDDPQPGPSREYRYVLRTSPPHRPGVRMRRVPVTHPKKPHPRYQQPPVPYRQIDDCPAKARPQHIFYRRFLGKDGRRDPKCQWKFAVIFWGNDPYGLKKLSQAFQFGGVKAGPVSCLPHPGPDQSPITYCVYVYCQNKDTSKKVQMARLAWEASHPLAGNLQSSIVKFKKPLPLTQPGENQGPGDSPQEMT", "assay": "inhibitors of C-LANA binding to LBS DNA, dose response, biochemical, fluorescence polarization, cherry-picked samples (AID 504725);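 also: fluorescence polarization of a labeled DNA duplex reporting LANA DNA binding; potency is for inhibitors that block LANA binding to the DNA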", "set-up": "species or system Human gammaherpesvirus 8"}, "[1]": {"biological_target": "T1, 1-phosphatidylinositol 4,5-bisphosphate phosphodiesterase gamma-1 (Homo sapiens, UniProt P19174)", "T1 sequence (P19174 whole entry)": "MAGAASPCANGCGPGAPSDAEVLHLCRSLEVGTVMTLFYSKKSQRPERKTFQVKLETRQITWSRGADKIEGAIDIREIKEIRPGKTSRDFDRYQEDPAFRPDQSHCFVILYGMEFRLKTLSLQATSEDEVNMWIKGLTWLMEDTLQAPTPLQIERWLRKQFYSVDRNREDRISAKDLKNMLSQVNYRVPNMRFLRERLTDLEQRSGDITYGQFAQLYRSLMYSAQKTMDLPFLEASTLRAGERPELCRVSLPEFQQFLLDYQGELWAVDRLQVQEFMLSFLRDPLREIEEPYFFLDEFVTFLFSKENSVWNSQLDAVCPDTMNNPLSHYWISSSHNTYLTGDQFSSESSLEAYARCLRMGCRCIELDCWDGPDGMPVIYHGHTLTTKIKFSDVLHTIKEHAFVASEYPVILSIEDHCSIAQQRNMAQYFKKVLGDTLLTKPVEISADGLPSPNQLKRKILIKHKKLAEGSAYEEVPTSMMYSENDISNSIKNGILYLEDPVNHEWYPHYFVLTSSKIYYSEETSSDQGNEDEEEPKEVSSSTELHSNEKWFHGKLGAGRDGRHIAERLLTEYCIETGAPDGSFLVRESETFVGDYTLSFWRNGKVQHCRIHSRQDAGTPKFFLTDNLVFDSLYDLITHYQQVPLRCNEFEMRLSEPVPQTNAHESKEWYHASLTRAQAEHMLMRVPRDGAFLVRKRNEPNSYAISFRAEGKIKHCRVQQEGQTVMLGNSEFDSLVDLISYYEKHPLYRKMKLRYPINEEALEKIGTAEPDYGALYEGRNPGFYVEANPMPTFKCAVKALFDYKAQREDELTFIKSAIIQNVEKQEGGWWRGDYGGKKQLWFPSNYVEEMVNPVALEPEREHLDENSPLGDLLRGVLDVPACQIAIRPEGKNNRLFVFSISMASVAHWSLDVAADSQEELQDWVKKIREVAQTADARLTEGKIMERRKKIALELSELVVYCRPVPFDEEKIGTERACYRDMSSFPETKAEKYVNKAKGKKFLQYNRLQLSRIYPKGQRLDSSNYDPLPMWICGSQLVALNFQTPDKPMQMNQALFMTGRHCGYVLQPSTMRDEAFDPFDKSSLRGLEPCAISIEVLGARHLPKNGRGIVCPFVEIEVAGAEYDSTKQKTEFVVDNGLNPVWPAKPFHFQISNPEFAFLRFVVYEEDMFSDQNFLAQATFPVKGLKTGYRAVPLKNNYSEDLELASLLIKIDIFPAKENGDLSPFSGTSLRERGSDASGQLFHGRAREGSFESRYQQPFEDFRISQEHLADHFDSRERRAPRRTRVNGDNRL", "assay": "Counterscreen for inhibitors of phospholipase C isozymes (PLC-B3): Fluorescence-based biochemical high throughput dose response assay to identify inhibitors of phospholipase C isozymes (PLC-gamma1)."}, "Caspase-3": {"biological_target": "T2, Caspase-3 (Homo sapiens, UniProt P42574)", "T2 sequence (P42574 whole entry)": "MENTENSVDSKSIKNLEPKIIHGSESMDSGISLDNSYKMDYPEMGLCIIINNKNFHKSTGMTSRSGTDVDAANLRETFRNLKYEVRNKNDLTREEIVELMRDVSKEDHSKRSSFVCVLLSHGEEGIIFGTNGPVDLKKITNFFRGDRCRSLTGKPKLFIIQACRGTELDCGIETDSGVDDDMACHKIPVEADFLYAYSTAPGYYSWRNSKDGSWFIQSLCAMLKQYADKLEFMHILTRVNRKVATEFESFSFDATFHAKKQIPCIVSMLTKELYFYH", "type": "functional"}, "Caspase-8": {"biological_target": "Caspase-8 (Homo sapiens, UniProt Q14790)", "sequence (Q14790 217-374 limits assumed)": "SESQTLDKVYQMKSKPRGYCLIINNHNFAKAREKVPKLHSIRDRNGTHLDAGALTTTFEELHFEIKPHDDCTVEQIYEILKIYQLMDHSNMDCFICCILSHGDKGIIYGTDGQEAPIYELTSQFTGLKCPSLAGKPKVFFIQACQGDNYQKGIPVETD", "sequence (Q14790 385-479 limits assumed)": "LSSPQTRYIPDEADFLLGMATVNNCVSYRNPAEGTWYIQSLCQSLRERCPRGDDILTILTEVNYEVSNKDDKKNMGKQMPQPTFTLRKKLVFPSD", "assay": "caspase-8 inhibition counter-screen, dose response, selectivity assay for caspase-6 inhibitor project, biochemical, Z-IETD-R110 fluorescence, cherry-picked samples (AID 743294)"}, "MEF": {"tested_on": "MEF", "assay": "SAR analysis of small molecule cytotoxicity of MazEF TA System activators in embryonic fibroblast (MEF) cells. [Related pubchem assays (depositor defined):AID504720, AID504743]", "type": "functional", "conditions": "Mus musculus"}, "cells": {"assay": "cells", "type": "functional, cell-based", "conditions": "HEK-CNG"}, "[2]": {"biological_target": "Peroxisome proliferator-activated receptor gamma/Nuclear receptor corepressor 2 (Homo sapiens, UniProt P37231+Q9Y618)", "sequence (P37231 whole entry)": "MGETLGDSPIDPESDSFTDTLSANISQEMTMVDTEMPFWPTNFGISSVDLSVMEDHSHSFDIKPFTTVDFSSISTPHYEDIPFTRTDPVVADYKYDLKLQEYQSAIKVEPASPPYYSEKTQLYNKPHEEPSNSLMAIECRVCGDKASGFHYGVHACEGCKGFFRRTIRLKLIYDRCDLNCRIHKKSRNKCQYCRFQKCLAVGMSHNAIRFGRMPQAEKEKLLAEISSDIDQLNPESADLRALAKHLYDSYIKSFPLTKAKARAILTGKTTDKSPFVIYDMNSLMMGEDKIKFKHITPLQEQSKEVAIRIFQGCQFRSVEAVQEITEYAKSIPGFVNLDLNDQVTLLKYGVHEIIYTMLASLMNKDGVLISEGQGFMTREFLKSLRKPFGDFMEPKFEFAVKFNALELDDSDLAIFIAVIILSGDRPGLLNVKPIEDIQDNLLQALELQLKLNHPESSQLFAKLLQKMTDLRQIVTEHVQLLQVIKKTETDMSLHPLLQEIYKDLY", "sequence (Q9Y618 whole entry)": "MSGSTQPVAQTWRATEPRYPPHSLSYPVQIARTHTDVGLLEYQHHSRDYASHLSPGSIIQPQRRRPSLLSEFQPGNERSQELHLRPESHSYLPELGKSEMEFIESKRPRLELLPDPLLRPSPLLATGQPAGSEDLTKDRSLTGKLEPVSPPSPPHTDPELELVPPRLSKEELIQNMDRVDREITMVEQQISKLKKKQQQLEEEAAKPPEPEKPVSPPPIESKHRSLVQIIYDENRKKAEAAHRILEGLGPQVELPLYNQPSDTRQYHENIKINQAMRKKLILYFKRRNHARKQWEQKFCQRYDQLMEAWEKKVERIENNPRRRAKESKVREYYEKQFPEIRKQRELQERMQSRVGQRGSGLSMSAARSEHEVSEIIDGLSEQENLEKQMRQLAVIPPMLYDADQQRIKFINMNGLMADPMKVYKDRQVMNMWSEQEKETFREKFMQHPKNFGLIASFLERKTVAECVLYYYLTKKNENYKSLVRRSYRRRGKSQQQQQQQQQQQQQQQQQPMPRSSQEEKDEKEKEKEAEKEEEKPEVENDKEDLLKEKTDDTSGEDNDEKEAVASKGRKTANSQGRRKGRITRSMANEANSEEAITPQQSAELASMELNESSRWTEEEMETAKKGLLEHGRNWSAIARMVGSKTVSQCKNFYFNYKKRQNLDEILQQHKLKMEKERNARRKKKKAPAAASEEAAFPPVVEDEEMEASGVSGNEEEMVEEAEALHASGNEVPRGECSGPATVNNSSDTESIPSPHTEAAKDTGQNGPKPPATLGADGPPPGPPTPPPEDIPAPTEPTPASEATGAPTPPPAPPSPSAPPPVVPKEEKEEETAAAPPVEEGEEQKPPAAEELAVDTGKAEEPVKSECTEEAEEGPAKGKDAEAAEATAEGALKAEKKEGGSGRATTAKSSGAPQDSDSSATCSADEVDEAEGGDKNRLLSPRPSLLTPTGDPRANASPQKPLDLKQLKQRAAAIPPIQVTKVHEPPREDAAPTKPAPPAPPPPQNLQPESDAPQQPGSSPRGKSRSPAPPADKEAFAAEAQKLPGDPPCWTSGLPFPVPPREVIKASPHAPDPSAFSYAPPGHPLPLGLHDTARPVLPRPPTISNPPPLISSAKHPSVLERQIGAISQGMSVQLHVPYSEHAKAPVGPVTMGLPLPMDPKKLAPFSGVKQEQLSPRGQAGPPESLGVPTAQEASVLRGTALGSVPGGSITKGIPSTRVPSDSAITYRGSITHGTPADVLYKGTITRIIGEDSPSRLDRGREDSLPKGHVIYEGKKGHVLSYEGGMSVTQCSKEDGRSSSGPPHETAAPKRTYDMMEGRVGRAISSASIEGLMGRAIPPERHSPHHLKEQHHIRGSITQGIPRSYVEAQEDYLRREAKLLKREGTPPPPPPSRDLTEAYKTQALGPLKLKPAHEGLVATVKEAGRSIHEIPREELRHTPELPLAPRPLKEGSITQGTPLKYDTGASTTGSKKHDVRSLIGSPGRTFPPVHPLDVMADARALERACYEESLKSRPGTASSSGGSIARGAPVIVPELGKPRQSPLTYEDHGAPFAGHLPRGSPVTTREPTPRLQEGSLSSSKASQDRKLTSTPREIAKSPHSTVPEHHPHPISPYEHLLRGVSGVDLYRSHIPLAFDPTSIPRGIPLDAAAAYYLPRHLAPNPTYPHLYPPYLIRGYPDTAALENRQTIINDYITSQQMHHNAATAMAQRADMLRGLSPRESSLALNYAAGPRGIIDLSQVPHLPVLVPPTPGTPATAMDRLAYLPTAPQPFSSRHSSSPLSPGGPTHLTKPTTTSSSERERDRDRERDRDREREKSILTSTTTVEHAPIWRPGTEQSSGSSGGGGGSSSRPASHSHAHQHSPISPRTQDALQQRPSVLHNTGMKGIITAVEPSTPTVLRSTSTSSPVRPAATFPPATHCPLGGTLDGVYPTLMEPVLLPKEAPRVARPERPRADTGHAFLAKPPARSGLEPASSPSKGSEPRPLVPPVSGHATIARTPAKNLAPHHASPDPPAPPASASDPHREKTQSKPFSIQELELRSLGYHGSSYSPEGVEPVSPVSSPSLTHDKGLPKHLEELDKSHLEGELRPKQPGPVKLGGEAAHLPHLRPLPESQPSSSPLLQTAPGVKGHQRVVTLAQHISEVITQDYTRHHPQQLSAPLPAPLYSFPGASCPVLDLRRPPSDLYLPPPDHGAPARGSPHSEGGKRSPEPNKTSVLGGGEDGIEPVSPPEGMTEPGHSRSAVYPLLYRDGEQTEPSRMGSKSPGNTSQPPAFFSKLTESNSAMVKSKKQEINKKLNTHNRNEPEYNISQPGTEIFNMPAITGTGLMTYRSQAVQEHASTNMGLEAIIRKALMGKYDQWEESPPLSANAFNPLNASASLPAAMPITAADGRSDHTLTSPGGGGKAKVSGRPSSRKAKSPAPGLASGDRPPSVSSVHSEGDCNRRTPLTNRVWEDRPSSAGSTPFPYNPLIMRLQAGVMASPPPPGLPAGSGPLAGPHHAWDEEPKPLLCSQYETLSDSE", "type": "functional"}, "BJ": {"tested_on": "BJ", "assay": "cytotoxicity toward BJ-TERT fibroblasts, dose response, cell-based, RAS-independent, luminescence (AID 1933)", "type": "functional", "conditions": "Homo sapiens"}, "[3]": {"biological_target": "Ras and Rab interactor 1/Tyrosine-protein kinase ABL1 (Homo sapiens, UniProt P00519+Q13671)", "type": "functional"}, "[4]": {"assay": "THP-1 cell cytotoxicity, dose response, cytotoxicity control for non-replicating M. tuberculosis project (AID 489025)", "type": "functional"}, "[5]": {"assay": "cytotoxicity in HEK-293T cells, dose response, cytotoxicity control for TCR NF-kB inhibitor project, luminescence, T-cell screen hits (AID 489026);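 also: cells exposed to compound about 14 hours before the viability readout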", "type": "functional, cell-based"}, "[6]": {"biological_target": "Transitional endoplasmic reticulum ATPase (Homo sapiens, UniProt P55072)", "assay": "p97 ATPase inhibitors, dose response, biochemical (AID 1534)"}}, "note": "Active and inactive are the calls of the source.", "data": [{"smiles": "O=C(CCN1C(=O)/C(=C\\c2ccco2)SC1=S)Nc1ccc(C(=O)O)c(O)c1", "values": [{"measurement": "AC50", "setting": "ORF 73", "value": "94.6 µM (active)"}, {"measurement": "IC50", "setting": "[1]", "value": "> 122 µM (inactive)"}]}, {"smiles": "Oc1nc(Nc2ccccc2Cl)cc2ccccc12", "values": [{"measurement": "IC50", "setting": "Caspase-3", "value": "4.42 µM (active)"}, {"measurement": "AC50", "setting": "Caspase-8", "value": "13.4 µM (active)"}]}, {"smiles": "O=C1C=C(c2c(O)ccc3ccccc23)c2ccccc2C1=O", "values": [{"measurement": "CC50", "setting": "MEF", "value": "3.84 µM (active)"}, {"measurement": "EC50", "setting": "cells", "value": "> 29.9 µM (inactive)"}]}, {"smiles": "Cc1nc2c(=O)n(C)c(=O)nc-2n(C)n1", "values": [{"measurement": "IC50", "setting": "[2]", "value": "> 39.8 µM (not active)"}, {"measurement": "EC50", "setting": "BJ", "value": "4.56 µM (active)"}, {"measurement": "IC50", "setting": "[3]", "value": "0.302 µM (active)"}, {"measurement": "CC50", "setting": "[4]", "value": "2.73 µM (active)"}, {"measurement": "IC50", "setting": "[5]", "value": "9.41 µM (active)"}, {"measurement": "IC50", "setting": "[6]", "value": "> 50 µM (not active)"}]}]}
